Results taken from patent publication US20230028441A1, “NOVEL HETEROARYL-TRIAZOLE COMPOUNDS AS PESTICIDES” (Bayer Aktiengesellschaft, priority 2019, published 2023).

Tests used:
Type in all cases: in vivo
[1] = test system: cattle tick larvae (Rhipicephalus microplus), strain Parkhurst, resistant against synthetic pyrethroids; test: Rhipicephalus (Boophilus) microplus in-vitro contact test, larval cattle tick; details: 5 μg/cm^2 (=500 g/ha), after 48 hours, read-out: efficacy (larvae dead or moribund)
Outline: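 Efficacy, 100% meaning all larvae dead or moribund, was judged at 48 h from loss of negative geotactic climbing. Larvae of the Parkhurst strain, 20–50 per tube, were exposed at 27° C and 85% humidity to acetone-coated tube surfaces; 900 ppm corresponded to 5 μg/cm^2.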

[2] = test system: adult engorged female ticks (Rhipicephalus microplus); test: Rhipicephalus (Boophilus) microplus injection test; details: 168 h, egg deposition after 7 days, read-out: efficacy (infertile eggs); for pest or weed control at 0.004 mg: 4 μg/animal
Outline: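 Efficacy is the share of infertile eggs: 100% means none are fertile, 0% means all are fertile. Egg deposition was checked 7 days after injecting 1 μL of DMSO-diluted compound into the abdomen of five engorged female R. microplus, with doubtful eggs kept about 42 days to hatching. The stock was 10 mg in 0.5 mL DMSO.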

[3] = test system: adult cat fleas (Ctenocephalides felis); test: Ctenocephalides felis in-vitro contact test, adult cat flea; details: 5 μg/cm^2 (=500 g/ha), after 48 hours, read-out: efficacy (fleas dead or moribund)
Outline: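 Efficacy (%) counts fleas that are dead or moribund, meaning unable to escape heat (45-50 °C, ≤5 min) by climbing. Scoring was done 48 h after 5-10 adults were placed at room temperature in glass tubes. The tubes carried a dried acetone film of compound, 5 μg/cm^2 at 900 ppm.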

[4] = test system: adult brown dog ticks (Rhipicephalus sanguineus); test: Rhipicephalus sanguineus in-vitro contact test with adult brown dog ticks; details: after 48 hours, read-out: efficacy (ticks dead or moribund); for pest or weed control at 5 µg/cm2, 500 g/ha: 5 μg/cm^2 (=500 g/ha); for pest or weed control at 1 µg/cm2, 100 g/ha: 1 μg/cm^2 (=100 g/ha)
Outline: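 Efficacy is the percentage of adult ticks dead or moribund, meaning immotile or uncoordinated and unable to escape 45-50° C. heat within 5 min. Read 48 h after 5-10 ticks were enclosed at room temperature in acetone-coated glass tubes. Dose 5 μg/cm^2, from a 900 ppm coating solution.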

[5] = test system: larvae of the banded cucumber beetle (Diabrotica balteata); test: Diabrotica balteata spray test; details: 168 h, after 7 days, wheat seeds, read-out: efficacy (seedlings grown up); for pest or weed control at 32 µg/disc, 100 g/ha: 100 g/ha (=32 μg/well)
Outline: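 Efficacy (%) read at day 7: 100% means seedlings grew like untreated, uninfested controls; 0% means no seedlings grew. Wheat seeds germinated 1 day on agar, sprayed with emulsified compound solution (1000 ppm emulsifier in water), then each well infested with 10-20 larvae.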

[6] = test system: larvae of the southern green stink bug (Nezara viridula); test: Nezara viridula spray test; details: in Hordeum vulgare, 96 h
Outline: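 Percent mortality of southern green stink bug larvae read 4 days after spraying infested Hordeum vulgare. Test solutions: compound in acetone plus dimethylformamide, diluted with emulsifier-containing water (1000 ppm alkylarylpolyglycol ether).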

[7] = test system: fall armyworm larvae (Spodoptera frugiperda); test: Spodoptera frugiperda spray test (maize leaf sections); details: 168 h
Outline: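 Percent kill of Spodoptera frugiperda larvae was recorded 7 days after infesting dried, treated maize leaf sections. Spray solutions were made from an acetone/DMF compound preparation diluted with 1000 ppm emulsifier-containing water.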

[8] = test system: caterpillars of the fall army worm (Spodoptera frugiperda); test: Spodoptera frugiperda spray test (cotton leaves); details: 168 h
Protocol: Solvent: 14 parts by weight of dimethylformamide
Emulsifier: alkylaryl polyglycol ether
(§1) To produce a suitable preparation of active compound, 1 part by weight of active compound is mixed with the stated amount of solvent and is diluted with water, containing an emulsifier concentration of 1000 ppm, to the desired concentration. Further test concentrations are prepared by dilution with emulsifier containing water. Ammonium salt and/or penetration enhancer in a dosage of 1000 ppm are added to the desired concentration if necessary.
Cotton leaves (Gossypium hirsutum) are treated by being sprayed with the preparation of the active compound of the desired concentration and are infested with caterpillars of the fall army worm (Spodoptera frugiperda).
After 7 days mortality in % is determined. 100% means all the caterpillars have been killed and 0% means none of the caterpillars have been killed.

[9] = test system: adult unfed cat fleas (Ctenocephalides felis); test: Ctenocephalides felis oral test; details: 48 h, 100 ppm in cattle blood, after 2 days
Outline: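 Percent flea mortality recorded at 2 days. Compound was dissolved in dimethyl sulfoxide and diluted into cattle blood, which ~20 unfed adult cat fleas ingested through parafilm from a 37°C-heated chamber, their own chamber kept at room temperature.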

[10] = test system: green peach aphid (Myzus persicae); test: Myzus persicae oral test; details: 120 h
Outline: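 Readout: % mortality at day 5, where 100% = all aphids dead and 0% = none dead. Feeding via parafilm membrane over compound in IPL41 medium (33%+15% sugar); mixed-age population. Stock in acetone (1:100 w/w), water-diluted.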

[11] = test system: green peach aphid (Myzus persicae); test: Myzus persicae spray test; details: foliar, 120 h, 100 g/ha, after 5 days, Chinese cabbage leaf disks
Protocol: Solvent: 78.0 parts by weight acetone • 1.5 parts by weight dimethylformamide
Emulsifier: alkylarylpolyglycol ether
as §1, with “solvents” for “solvent”, “water.” for “water. Ammonium salt and/or penetration enhancer in a dosage of 1000 ppm are added to the desired concentration if necessary.”
Chinese cabbage (Brassica pekinensis) leaf disks infected with all instars of the green peach aphid (Myzus persicae), are sprayed with a preparation of the active ingredient of the desired concentration.
After 5 days mortality in % is determined. 100% means all aphids have been killed and 0% means none of the aphids have been killed.

Row | SMILES | pest or weed control at 5 µg/cm2 [1] | pest or weed control at 0.004 mg [2] | pest or weed control at 0.02 mg ([2]; 20 μg/animal) | pest or weed control at 5 µg/cm2 [3] | pest or weed control at 5 µg/cm2, 500 g/ha [4] | pest or weed control at 32 µg/disc, 100 g/ha [5] | pest or weed control at 160 µg/disc, 500 g/ha ([5]; 500 g/ha (=160 μg/well)) | mortality at 100 g/ha [6] | mortality at 500 g/ha [6] | mortality at 500 g/ha [7] | mortality at 20 ppm [8] | mortality at 100 ppm [9] | pest or weed control at 1 µg/cm2, 100 g/ha [4] | mortality at 4 ppm [10] | mortality at 100 g/ha [11] | mortality at 100 g/ha [7]
1 | CSc1nc(C(C)NC(=O)c2cc(Cl)cc(C(F)(F)F)c2)n(-c2ccc(Cl)cn2)n1 (stereo not drawn) [I-062] | 100% | 100% | 100% | 100% | 100% | 100% | 100% | 100% | 100% | 100% | 100% |  |  |  |  | 
2 | CNc1nc(C(C)NC(=O)c2cc(Br)cc(C(F)(F)F)c2)n(-c2ncccn2)n1 (stereo not drawn) [I-092] | 100% | 100% |  | 100% | 100% | 100% |  | 100% |  |  | 80% | 100% | 100% | 100% | 90% | 100%
3 | CC(NC(=O)c1cc(OC(F)(F)F)cc(C2CC2)c1)c1nc(N)nn1-c1ncccn1 (stereo not drawn) [I-097] | 90% | 100% |  | 90% |  | 100% |  | 100% |  |  | 100% | 100% |  | 100% | 100% | 100%
4 | CNc1nc(C(C)NC(=O)c2cc(Cl)cc(OC(F)(F)F)c2)n(-c2ncccn2)n1 (stereo not drawn) [I-099] | 90% | 100% |  | 100% | 80% | 100% |  |  |  |  | 100% | 100% |  | 100% |  | 100%
5 | CNc1nc(C(C)NC(=O)c2cc(OC(F)(F)F)cc(C3CC3)c2)n(-c2ncccn2)n1 (stereo not drawn) [I-101] | 100% | 100% |  | 100% | 100% | 100% |  |  |  |  | 100% | 100% | 100% | 100% | 90% | 100%
6 | CNc1nc(C(C)NC(=O)c2cc(Br)cc(OC(F)(F)F)c2)n(-c2ncccn2)n1 (stereo not drawn) [I-103] | 100% | 100% |  | 100% | 100% | 100% |  | 100% |  |  | 100% | 100% | 100% | 100% | 90% | 100%
7 | CC(NC(=O)c1cc(C(F)(F)F)cc(C(F)(F)F)c1)c1nc(N)nn1-c1ccc(C#N)cn1 (stereo not drawn) [I-104] | 100% | 100% |  | 100% | 100% | 100% |  |  |  |  | 100% | 100% | 100% | 100% |  | 100%
